Values belong to the compound of their own block, whether it stands above or below them.
How the values were obtained:
BRAF V600E = target: T1, BRAF V600E (Homo sapiens, UniProt P15056, V600E); assay: Cellular assay of target protein degradation, T-Rex 293 cells stably transfected with HA-BRAF_V600E (HA immunofluorescence, high content imaging); type: cell-based; conditions: T-Rex 293 HA-BRAF V600E; for DC50: half maximal degradation, read-out: BRaf V600E DC50; for Dmax: maximum degradation observed
T1 construct: expressed in transfected cells
Method in brief: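 Degradation of the HA-tagged construct is measured after 24 h treatment at 37 °C across 1 μM to 0.1 nM in 0.1% DMSO, in doxycycline-induced (1 ng/mL) cells. DC50 and Dmax come from HA fluorescence imaging.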

BRAF G466V = target: T2, BRAF G466V (Homo sapiens, UniProt P15056, G466V); assay: Cellular assay of target protein degradation, T-Rex 293 cells stably transfected with HA-BRAF G466V (HA immunofluorescence, high content imaging); type: cell-based; conditions: T-Rex 293 HA-BRAF G466V; for DC50: half maximal degradation, read-out: BRaf G466V DC50; for Dmax: maximum degradation observed
T2 construct: expressed in transfected cells
Method in brief: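 Dose range spans 30 nM to 3 pM (0.1% DMSO) over 24 hours at 37° C, in cells induced with 0.75 ng/mL doxycycline. Fixed cells are probed with anti-HA antibody overnight at 4° C, then imaged; half-maximal degradation and maximum degradation are derived.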

T2 sequence (P15056 whole entry G466V): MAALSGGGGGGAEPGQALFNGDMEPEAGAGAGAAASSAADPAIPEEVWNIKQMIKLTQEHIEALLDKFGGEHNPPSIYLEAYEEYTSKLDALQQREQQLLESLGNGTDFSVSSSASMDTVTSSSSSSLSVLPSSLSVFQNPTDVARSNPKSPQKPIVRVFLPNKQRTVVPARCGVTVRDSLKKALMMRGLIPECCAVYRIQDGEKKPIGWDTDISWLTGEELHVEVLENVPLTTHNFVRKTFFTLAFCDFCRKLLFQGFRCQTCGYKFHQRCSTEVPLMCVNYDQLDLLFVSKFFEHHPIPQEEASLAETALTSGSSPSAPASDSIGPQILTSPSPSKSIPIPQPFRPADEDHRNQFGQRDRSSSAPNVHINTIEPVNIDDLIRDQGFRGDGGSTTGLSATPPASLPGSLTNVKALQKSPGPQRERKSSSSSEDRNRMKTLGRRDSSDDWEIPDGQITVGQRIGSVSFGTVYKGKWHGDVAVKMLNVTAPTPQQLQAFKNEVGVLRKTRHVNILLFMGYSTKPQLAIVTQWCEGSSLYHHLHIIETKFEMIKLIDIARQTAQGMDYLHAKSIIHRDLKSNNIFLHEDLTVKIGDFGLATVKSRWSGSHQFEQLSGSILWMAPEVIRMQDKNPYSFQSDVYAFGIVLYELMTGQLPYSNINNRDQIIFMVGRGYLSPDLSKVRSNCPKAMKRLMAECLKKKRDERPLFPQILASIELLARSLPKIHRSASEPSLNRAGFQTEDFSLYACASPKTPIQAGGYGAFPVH
T1 sequence (P15056 whole entry V600E): as the sequence (P15056 whole entry G466V) above, with V466G, V600E counted along it

SMILES: C[C@H]1CC[C@H](C)N1S(=O)(=O)Nc1ccc(F)c(C(=O)c2c[nH]c3ncc(-c4ccc(N5CCC(CN6CCC(c7ccc8c(c7)CN([C@H]7CCC(=O)NC7=O)C8=O)CC6)CC5)cc4)cc23)c1F [Compound 262, (2S,5S)-N-{3-[5-(4-{4-[(4-{2-[(3S)-2,6-dioxopiperidin-3-yl]-1-oxo-2,3-dihydro-1H-isoindol-5-yl}piperidin-1-yl)methyl]piperidin-1-yl}phenyl)-1H-pyrrolo [2,3-b]pyridine-3-carbonyl]-2,4-difluorophenyl}-2,5-dimethylpyrrolidine-1-sulfonamide]
DC50 (BRAF V600E): 5 to 50 nM
Dmax (BRAF V600E): < 35%
DC50 (BRAF G466V): 1 to 10 nM
Dmax (BRAF G466V): 35 to 70%

SMILES: C[C@H]1CC[C@H](C)N1S(=O)(=O)Nc1ccc(F)c(C(=O)c2c[nH]c3ncc(-c4ccc(N5CCC(CN6CCC(c7ccc8c(c7)CN(C7CCC(=O)NC7=O)C8=O)CC6)CC5)cc4)cc23)c1F (stereo partly drawn) [Compound 263, (2S,5S)-N-[3-(5-{4-[4-({4-[2-(2,6-dioxopiperidin-3-yl)-1-oxo-2,3-dihydro-1H-isoindol-5-yl]piperidin-1-yl}methyl)piperidin-1-yl]phenyl}-1H-pyrrolo[2,3-b]pyridine-3-carbonyl)-2,4-difluorophenyl]-2,5-dimethylpyrrolidine-1-sulfonamide]
DC50 (BRAF V600E): 50 to 500 nM
Dmax (BRAF V600E): < 35%
DC50 (BRAF G466V): 1 to 10 nM
Dmax (BRAF G466V): 35 to 70%

SMILES: C[C@H]1CCCN1S(=O)(=O)Nc1ccc(F)c(C(=O)c2c[nH]c3ncc(-c4ccc(N5CCC(CN6CCC(c7ccc8c(c7)CN(C7CCC(=O)NC7=O)C8=O)CC6)CC5)cc4)cc23)c1F (stereo partly drawn) [Compound 264, (2S)-N-[3-(5-{4-[4-({4-[2-(2,6-dioxopiperidin-3-yl)-1-oxo-2,3-dihydro-1H-isoindol-5-yl]piperidin-1-yl}methyl)piperidin-1-yl]phenyl}-1H-pyrrolo[2,3-b]pyridine-3-carbonyl)-2,4-difluorophenyl]-2-methylpyrrolidine-1-sulfonamide]
DC50 (BRAF V600E): 5 to 50 nM
Dmax (BRAF V600E): 35 to 70%
DC50 (BRAF G466V): 1 to 10 nM
Dmax (BRAF G466V): 35 to 70%

SMILES: C[C@H]1[C@H](F)CCN1S(=O)(=O)Nc1ccc(F)c(C(=O)c2c[nH]c3ncc(-c4ccc(N5CCC(CN6CCC(c7ccc8c(c7)CN([C@H]7CCC(=O)NC7=O)C8=O)CC6)CC5)cc4)cc23)c1F [Compound 270, (2S,3R)-N-{3-[5-(4-{4-[(4-{2-[(3S)-2,6-dioxopiperidin-3-yl]-1-oxo-2,3-dihydro-1H-isoindol-5-yl}piperidin-1-yl)methyl]piperidin-1-yl}phenyl)-1H-pyrrolo [2,3-b]pyridine-3-carbonyl]-2,4-difluorophenyl}-3-fluoro-2-methylpyrrolidine-1-sulfonamide]
DC50 (BRAF V600E): 5 to 50 nM
Dmax (BRAF V600E): 35 to 70%
DC50 (BRAF G466V): 1 to 10 nM
Dmax (BRAF G466V): > 70%

SMILES: C[C@H]1[C@H](F)CCN1S(=O)(=O)Nc1ccc(F)c(C(=O)c2c[nH]c3ncc(-c4ccc(N5CCC(CN6CCC(c7ccc8c(c7)CN(C7CCC(=O)NC7=O)C8=O)CC6)CC5)cc4)cc23)c1F (stereo partly drawn) [Compound 271, (2S,3R)-N-[3-(5-{4-[4-({4-[2-(2,6-dioxopiperidin-3-yl)-1-oxo-2,3-dihydro-1H-isoindol-5-yl]piperidin-1-yl}methyl)piperidin-1-yl]phenyl}-1H-pyrrolo[2,3-b]pyridine-3-carbonyl)-2,4-difluorophenyl]-3-fluoro-2-methylpyrrolidine-1-sulfonamide]
DC50 (BRAF V600E): 5 to 50 nM
Dmax (BRAF V600E): 35 to 70%
DC50 (BRAF G466V): 1 to 10 nM
Dmax (BRAF G466V): > 70%

SMILES: O=C1CC[C@H](N2Cc3cc(C4CCN(CC5CCN(c6ccc(-c7cnc8[nH]cc(C(=O)c9c(F)ccc(NS(=O)(=O)N%10CC[C@@H](F)C%10)c9C(F)(F)F)c8c7)cc6)CC5)CC4)ccc3C2=O)C(=O)N1 [Compound 272, (3R)-N-{3-[5-(4-{4-[(4-{2-[(3S)-2,6-dioxopiperidin-3-yl]-1-oxo-2,3-dihydro-1H-isoindol-5-yl}piperidin-1-yl)methyl]piperidin-1-yl}phenyl)-1H-pyrrolo [2,3-b]pyridine-3-carbonyl]-4-fluoro-2-(trifluoromethyl)phenyl}-3-fluoropyrrolidine-1-sulfonamide]
DC50 (BRAF V600E): 50 to 500 nM
Dmax (BRAF V600E): 35 to 70%
DC50 (BRAF G466V): 1 to 10 nM
Dmax (BRAF G466V): 35 to 70%

SMILES: O=C1CCC(N2Cc3cc(C4CCN(CC5CCN(c6ccc(-c7cnc8[nH]cc(C(=O)c9c(F)ccc(NS(=O)(=O)N%10CC[C@@H](F)C%10)c9C(F)(F)F)c8c7)cc6)CC5)CC4)ccc3C2=O)C(=O)N1 (stereo partly drawn) [Compound 273, (3R)-N-[3-(5-{4-[4-({4-[2-(2,6-dioxopiperidin-3-yl)-1-oxo-2,3-dihydro-1H-isoindol-5-yl]piperidin-1-yl}methyl)piperidin-1-yl]phenyl}-1H-pyrrolo[2,3-b]pyridine-3-carbonyl)-4-fluoro-2-(trifluoromethyl)phenyl]-3-fluoropyrrolidine-1-sulfonamide]
DC50 (BRAF V600E): > 500 nM
Dmax (BRAF V600E): 35 to 70%
DC50 (BRAF G466V): 10 to 30 nM
Dmax (BRAF G466V): 35 to 70%

SMILES: COc1ccc(NS(=O)(=O)N2CC[C@@H](F)C2)c(OC)c1C(=O)c1c[nH]c2ncc(-c3ccc(N4CCC(CN5CCC(c6ccc7c(c6)CN([C@H]6CCC(=O)NC6=O)C7=O)CC5)CC4)cc3)cc12 [Compound 274, (3R)-N-{3-[5-(4-{4-[(4-{2-[(3S)-2,6-dioxopiperidin-3-yl]-1-oxo-2,3-dihydro-1H-isoindol-5-yl}piperidin-1-yl)methyl]piperidin-1-yl}phenyl)-1H-pyrrolo [2,3-b]pyridine-3-carbonyl]-2,4-dimethoxyphenyl}-3-fluoropyrrolidine-1-sulfonamide]
DC50 (BRAF V600E): > 500 nM
DC50 (BRAF G466V): > 30 nM

SMILES: COc1ccc(NS(=O)(=O)N2CC[C@@H](F)C2)c(OC)c1C(=O)c1c[nH]c2ncc(-c3ccc(N4CCC(CN5CCC(c6ccc7c(c6)CN(C6CCC(=O)NC6=O)C7=O)CC5)CC4)cc3)cc12 (stereo partly drawn) [Compound 275, (3R)-N-[3-(5-{4-[4-({4-[2-(2,6-dioxopiperidin-3-yl)-1-oxo-2,3-dihydro-1H-isoindol-5-yl]piperidin-1-yl}methyl)piperidin-1-yl]phenyl}-1H-pyrrolo[2,3-b]pyridine-3-carbonyl)-2,4-dimethoxyphenyl]-3-fluoropyrrolidine-1-sulfonamide]
DC50 (BRAF V600E): > 500 nM
DC50 (BRAF G466V): > 30 nM

The remaining lines, values ahead:

DC50 (BRAF V600E): > 500 nM
DC50 (BRAF G466V): > 30 nM
SMILES: CCc1ccc(NS(=O)(=O)N2CC[C@@H](F)C2)c(F)c1C(=O)c1c[nH]c2ncc(-c3ccc(N4CCC(CN5CCC(c6ccc7c(c6)CN([C@H]6CCC(=O)NC6=O)C7=O)CC5)CC4)cc3)cc12 [Compound 265, (3R)-N-{3-[5-(4-{4-[(4-{2-[(3S)-2,6-dioxopiperidin-3-yl]-1-oxo-2,3-dihydro-1H-isoindol-5-yl}piperidin-1-yl)methyl]piperidin-1-yl}phenyl)-1H-pyrrolo [2,3-b]pyridine-3-carbonyl]-4-ethyl-2-fluorophenyl}-3-fluoropyrrolidine-1-sulfonamide]

DC50 (BRAF V600E): > 500 nM
DC50 (BRAF G466V): > 30 nM
SMILES: CCc1ccc(NS(=O)(=O)N2CC[C@@H](F)C2)c(F)c1C(=O)c1c[nH]c2ncc(-c3ccc(N4CCC(CN5CCC(c6ccc7c(c6)CN(C6CCC(=O)NC6=O)C7=O)CC5)CC4)cc3)cc12 (stereo partly drawn) [Compound 266, (3R)-N-[3-(5-{4-[4-({4-[2-(2,6-dioxopiperidin-3-yl)-1-oxo-2,3-dihydro-1H-isoindol-5-yl]piperidin-1-yl}methyl)piperidin-1-yl]phenyl}-1H-pyrrolo[2,3-b]pyridine-3-carbonyl)-4-ethyl-2-fluorophenyl]-3-fluoropyrrolidine-1-sulfonamide]

DC50 (BRAF V600E): 5 to 50 nM
Dmax (BRAF V600E): 35 to 70%
DC50 (BRAF G466V): 1 to 10 nM
Dmax (BRAF G466V): 35 to 70%
SMILES: O=C1CC[C@H](N2Cc3cc(C4CCN(CC5CCN(c6ccc(-c7cnc8[nH]cc(C(=O)c9c(Cl)ccc(NS(=O)(=O)N%10CC[C@@H](F)C%10)c9Cl)c8c7)cc6)CC5)CC4)ccc3C2=O)C(=O)N1 [Compound 267, (3R)-N-{2,4-dichloro-3-[5-(4-{4-[(4-{2-[(3S)-2,6-dioxopiperidin-3-yl]-1-oxo-2,3-dihydro-1H-isoindol-5-yl}piperidin-1-yl)methyl]piperidin-1-yl}phenyl)-1H-pyrrolo [2,3-b]pyridine-3-carbonyl]phenyl}-3-fluoropyrrolidine-1-sulfonamide]

DC50 (BRAF V600E): 50 to 500 nM
Dmax (BRAF V600E): 35 to 70%
DC50 (BRAF G466V): 1 to 10 nM
Dmax (BRAF G466V): < 35%
SMILES: O=C1CCC(N2Cc3cc(C4CCN(CC5CCN(c6ccc(-c7cnc8[nH]cc(C(=O)c9c(Cl)ccc(NS(=O)(=O)N%10CC[C@@H](F)C%10)c9Cl)c8c7)cc6)CC5)CC4)ccc3C2=O)C(=O)N1 (stereo partly drawn) [Compound 268, (3R)-N-[2,4-dichloro-3-(5-{4-[4-({4-[2-(2,6-dioxopiperidin-3-yl)-1-oxo-2,3-dihydro-1H-isoindol-5-yl]piperidin-1-yl}methyl)piperidin-1-yl]phenyl}-1H-pyrrolo [2,3-b]pyridine-3-carbonyl)phenyl]-3-fluoropyrrolidine-1-sulfonamide]

DC50 (BRAF V600E): 5 to 50 nM
Dmax (BRAF V600E): 35 to 70%
DC50 (BRAF G466V): 1 to 10 nM
Dmax (BRAF G466V): 35 to 70%
SMILES: COc1ccc(NS(=O)(=O)N2CC[C@@H](F)C2)c(F)c1C(=O)c1c[nH]c2ncc(-c3ccc(N4CCC(CN5CCC(c6ccc7c(c6)CN(C6CCC(=O)NC6=O)C7=O)CC5)CC4)cc3)cc12 (stereo partly drawn) [Compound 269, (3R)-N-[3-(5-{4-[4-({4-[2-(2,6-dioxopiperidin-3-yl)-1-oxo-2,3-dihydro-1H-isoindol-5-yl]piperidin-1-yl}methyl)piperidin-1-yl]phenyl}-1H-pyrrolo[2,3-b]pyridine-3-carbonyl)-2-fluoro-4-methoxyphenyl]-3-fluoropyrrolidine-1-sulfonamide]

Reference: patent publication US12180193B2, “Accelerating fibrosarcoma protein degrading compounds and associated methods of use” (Arvinas Operations, Inc., priority 2020, dated 2024)
